Patent US6043228A, “O^6 -substituted guanine derivatives, a process for their preparation and their use in treating tumor cells” (Cancer Research Campaign Technology Limited, priority 1993, dated 2000)
Entries after “also recorded” stand apart in the source; their conditions may differ. Where two headings read alike, the source gives them in different places.

Legend:
[1] = Sensitivity of mammalian cells to the inactivators alone: XP cells; type: cell-based, human; settings: human, xp cells; FIG. 6; read-out: dose required for growth inhibition relative to that required for ATase inactivation
Protocol: (§1) In order to assess the effects on cell growth alone, Xeroderma pigmentosum cells and Chinese Hamster V79 cells were exposed to increasing concentrations (up to 600 μM) of selected inactivators for 2 h at 37°. In some cases, the inactivators were allowed to undergo hydrolysis at 37° C. for 20 hours and then added to Raji cells in order to assess the extent to which the decomposition products of the agents might inhibit cell growth. After 6 days the extent of cell growth was determined as described above.

[2] = tested on: Xeroderma pigmentosum cells; test: as above; type: cell-based, human; settings: inactivator alone (FIG. 6)
Protocol: as §1

ATase in Raji cells = target: T1, ATase in Raji cells (Homo sapiens, UniProt P16455); test: Inactivation of ATase activity in mammalian cells: Raji; type: cell-based
T1 construct: endogenous in cells; host or cells: Raji
T1 sequence (P16455 1-207): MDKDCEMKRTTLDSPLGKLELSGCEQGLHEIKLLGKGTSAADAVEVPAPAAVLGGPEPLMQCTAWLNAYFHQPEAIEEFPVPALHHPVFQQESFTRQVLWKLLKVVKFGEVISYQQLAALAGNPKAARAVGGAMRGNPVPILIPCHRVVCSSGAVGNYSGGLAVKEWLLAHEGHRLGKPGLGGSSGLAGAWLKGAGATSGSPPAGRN
Protocol: (§2) Mammalian cells were cultured under standard conditions. For example, Raji (a human lymphoblastoid cell line from a Burkitt's lymphoma) cells were grown in suspension culture in RPMI medium supplemented with 10% horse serum. A375M cells are human melanoma cells from which the xenografts described below were established following subcutaneous injection into nude mice: WiDr cells are a human colon carcinoma cell line: Hamster+120 cells are a mitozolomide-selected subline of a Chinese hamster lung fibroblast V79 cell line called RJKO: Yoshida cells are a rat carcinosarcoma cell line and YRbus is a busulphan resistant subline thereof: XP cells are an SV40-transformed fibroblast cell line originally from the skin of a Xeroderma piamentosum patient, pHMGhAT2b cells are a clone of these cells that have been transfected with a mammalian cell expression vector containing the human ATase cDNA and pHMGla cells are a clone that have been transfected with the expression vector only (i.e. one not containing the human ATase cDNA). Cell pellets were resuspended in cold (4° C.) buffer I containing 2 μg/ml leupeptin and sonicated for 10 seconds at 12μ peak to peak distance. After cooling in ice, the cells were sonicated for a further 10 seconds at 18μ. […]

Raji cells = test: Sensitization of Raji cells to BCNU (XTT assay); type: cell-based, human
Protocol: Following a 2 hour incubation at 37° C., medium containing either increasing doses of BCNU, temozolomide or equivalent vehicle was added and the cells allowed to grow for 6 days. At this time XTT solution was added and the cells incubated for a further 4 hours at 37° C. The resulting red/orange formazan reaction product was quantified by measuring absorption at 450 nm on a microtitre platereader.

[3] = tested on: Chinese Hamster V79 cells; test: Sensitivity of mammalian cells to the inactivators alone: V79 cells; type: cell-based; settings: inactivator alone, up to 600 μM
Protocol: as §1

[4] = tested on: human melanoma xenografts; test: Sensitization of human melanoma xenografts to temozolomide; type: in vivo, nude mice; settings: for sensitizing human melanoma xenografts to growth inhibitory effects of temozolomide, in words: inactivator i.p. 1 hour before temozolomide 100 mg/kg i.p., five consecutive days (FIGS. 21A, 22A)
Protocol: Xenograft tumour measurements were taken every 1-2 days by workers using digital calipers. Tumour volume was calculated using the formula (h×w×l)π/6. The experimental animals were also weighed every 1-2 days. Measurements continued until tumours in the control animals reached the maximum allowable volume (i.e. 1 cm×1 cm×1 cm).
(§3) Mice were treated with the inactivator as a suspension in corn oil by intraperitoneal injection (i.p.) or by oral gavage (p.o.) 60 mins prior to temozolomide (100 mg/kg in 20% DMSO in phosphate-buffered saline) which was always given by intraperitoneal injection: this schedule was repeated on days 1 to 5 inclusive. Controls received vehicle alone, inactivator alone or temozolomide alone.
(§4) The mice in the tests shown in FIGS. 19-24 were Swiss mouse derived athymic male mice ([…]) from ZENECA Pharmaceuticals, Mereside, Alderley Park, Macclesfield, Cheshire SK10 4T6, England.

nude mice [5] = test: Xenograft study: survival of nude mice given inactivator plus BCNU; settings: FIGS. 9-13
Description: BALB-C derived athymic male mice (nu/nu athymic) weighing between 25-35 g were obtained from the in-house breeding colony of the Paterson Institute for Cancer Research, Christie Hospital NHS Trust, Wilmslow Road, Manchester M20 9BX, England (ASU mice). The animals were housed in a sterile environment until required for experiments. In one experiment mice were obtained from Harlan-Olac, Harlan UK Limited, Shaw's Farm, Blackthorn, Bicester, Oxon. OX6 OPT, England (OLAC mice).

ATase in WiDr cells = target: T2, ATase in WiDr cells (Homo sapiens, UniProt P16455); test: Inactivation of ATase activity in mammalian cells: WiDr; type: cell-based; settings: read-out: Inactivation of ATase in Mammalian Cells I50
T2 construct: WiDr cells are a human colon carcinoma cell line; endogenous in cells; host or cells: WiDr
T2 sequence (P16455 1-207): T1 sequence (P16455 1-207)
Protocol: as §2

[6] = tested on: human bone marrow granulocyte macrophage colony forming cells; test: Sensitization of bone marrow cells to temozolomide (GM-CFC assay); type: cell-based; settings: for sensitization of human bone marrow cells to temozolomide, in words: 10 μM inactivator
Description: For the granulocyte/macrophage colony-forming cell (GM-CFC) assay primary human bone marrow samples were obtained from patients undergoing cardiothoracic surgery. […] The colonies represented precursor cells of the granulocyte/macrophage lineage (huGM-CFC). Survival was expressed as a % of the number of colonies at zero dose temozolomide.

ATase = test: Inactivation of ATase in mammalian cells, summary over human, rat and Chinese hamster cell lines; type: cell-based; settings: Table 5
Protocol: Mammalian cells were cultured under standard conditions. For example, Raji (a human lymphoblastoid cell line from a Burkitt's lymphoma) cells were grown in suspension culture in RPMI medium supplemented with 10% horse serum. […]
Cells were diluted to 10^6 /ml in culture medium containing either the appropriate concentration of inactivator or an equivalent volume of vehicle (DMSO). […] ATase activity was determined as described above, in duplicate sonicated cell extracts and expressed as the, percentage activity remaining based on that present in the untreated controls (for example 350-450 fm/mg in Raji cells).

nude mice [7] = test: Survival of xenograft-bearing nude mice given inactivator plus temozolomide; type: in vivo, mouse
Protocol: as §3, §4

SMILES	selectivity ratio [1]	growth inhibition / toxicity to XP cells, in words [2]	IC50 (ATase in Raji cells; Table 4, Raji cells, 2 hours at 37° C., read-out: Raji I50) [nM]	IC50 (ATase in Raji cells; Table 5, Human Raji, read-out: Inactivation of ATase in Mammalian Cells I50) [nM]	sensitizing Raji cells to growth inhibitory effects of BCNU, in words (Raji cells; 0.1 μM inactivator (FIG. 2))	sensitizing Raji cells to growth inhibitory effects of BCNU, in words (Raji cells; 1.0 μM inactivator (FIG. 2))	growth inhibition / toxicity to V79 cells, in words [3]	sensitizing human melanoma xenografts to growth inhibitory effects of temozolomide, in words [4]	toxicity in combination with BCNU in nude mice, in words (nude mice [5])	IC50 (ATase in WiDr cells) [nM]	sensitization of human bone marrow cells to temozolomide, in words ([6]; patient D (FIG. 14))	sensitization of human bone marrow cells to temozolomide, in words ([6]; patients C & E (FIG. 14))	sensitization of GM-CFC to cytotoxic effects of temozolomide, in words ([6]; four different patient samples, 10 μM (FIG. 23))	sensitization of GM-CFCs to toxic effects of temozolomide, in words ([6]; three human bone marrow samples (FIG. 14))	effectiveness relative to BeG in the cell lines used (ATase)	toxicity of oral combination versus i.p. route, in words (nude mice [7]; with temozolomide (FIG. 24B))	toxicity at equi-effective doses for tumour growth inhibition, in words (nude mice [7]; with temozolomide (FIGS. 21B, 22B))	oral versus i.p. administration in sensitizing xenografts to temozolomide, in words ([4]; 30 mg/kg p.o. vs 20 mg/kg i.p. (FIG. 24A))
Nc1nc(OCc2cccs2)c2nc[nH]c2n1 [B.4205, 0^6 -thenylguanine]	≥ 100	more sensitive than V79 cells; also recorded: toxic	20	20	more effective than BeG	equally effective	no such effects were seen	effective in sensitizing	substantially less toxic in combination with BCNU than BeG in combination with BCNU; also recorded: very little effect	20	no differential	smaller sensitization effect than O^6 -benzylguanine	only occurred in one patient	little or no sensitization	up to 7 times			
Nc1nc(OCc2cc(Br)cs2)c2nc[nH]c2n1 [B.4280, O^6-(4-bromothenyl)guanine]								effective in sensitizing; also recorded: about twice as effective as B.4205								marginally less toxic than the i.p. route	less toxic than B.4205	almost as effective as i.p. administration
